Assay results published in PubChem BioAssay (NCI).
Several values for one entry are separate records, joined by “and”; a condition that tells them apart may be missing. Identical values can stand only once.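 Growth conditions: 96-well plates. Treatment: test compound, 48 hours, 5 concentrations. Analysis: linear interpolation between bracketing concentrations; unreached endpoints set to highest concentration. GI50 = concentration required for 50% inhibition of growth. Definition used: TGI = concentration required for complete inhibition of growth.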

What was measured:
Experiment in all cases: NCI-60 cell line screen, 48 h
MDA-MB-435 = tested on: MDA-MB-435
T-47D breast = tested on: T-47D breast
MDA-MB-231 breast = tested on: MDA-MB-231 breast
PC-3 prostate = tested on: PC-3 prostate
MCF7 breast = tested on: MCF7 breast
BT-549 breast = tested on: BT-549 breast

Compound | TGI (MDA-MB-435) | TGI (T-47D breast) | TGI (MDA-MB-231 breast) | TGI (PC-3 prostate) | TGI (MCF7 breast) | TGI (BT-549 breast) | GI50 (MDA-MB-435) | GI50 (T-47D breast) | GI50 (PC-3 prostate) | GI50 (MCF7 breast) | GI50 (BT-549 breast) | GI50 (MDA-MB-231 breast)
Cc1ccc(NC(c2ccccc2)c2ccc3cccnc3c2O)cc1 (stereo unspecified) | 19.3 µM | 36 µM | 13.5 µM | 14.3 µM | 16.2 µM | 15.3 µM | – | – | – | – | – | –
COc1ccc(C(=O)/C=C/c2ccc(O)c(O)c2F)c(OC)c1 | 75 µM and 44.1 µM | 75 µM and > 100 µM | 38.1 µM and 42.1 µM | 17.7 µM and 24 µM | 9.83 µM and 13.1 µM | 18 µM and 26.2 µM | 2.51 µM | 3.21 µM | 6.18 µM | 0.334 µM | 6.24 µM | –
CC(C)C[C@@H](NC(=O)[C@@H](Cc1ccccc1)NC(=O)c1cnccn1)B1O[C@H]2[C@H](O)[C@@H](C(=O)NCCCC[C@@H]3NC(=O)[C@@H](Cc4ccccc4)NC(=O)[C@H](CC(=O)O)NC(=O)CNC(=O)[C@H](CCCN=C(N)N)NC3=O)O[C@@H](CN)[C@H]2O1 | 0.00891 µM and < 0.005 µM | 0.0648 µM and 0.025 µM | 0.0574 µM and 0.0692 µM | 0.389 µM and 0.563 µM | 0.789 µM | 0.0112 µM and 0.0113 µM | 0.00287 µM and < 0.005 µM | 0.00598 µM and 0.005 µM | 0.0273 µM and 0.0153 µM | 0.00413 µM and 0.005 µM | 0.003 µM and 0.005 µM | 0.0124 µM and 0.00828 µM
O=C1c2ccccc2-c2c1c1ccccc1c(=O)n2CCCNCCCn1c2c(c3ccccc3c1=O)C(=O)c1ccccc1-2 | 22.9 µM | 27.7 µM | 4.25 µM | 5.52 µM | > 10.5 µM | 19.7 µM | 9.34 µM | 10.7 µM | 2.08 µM | 1.33 µM | 8.42 µM | 1.09 µM
COc1ccc(CN2C(=O)/C(=C\c3cc(OC)c(OC)c(OC)c3)c3cc(OC)ccc32)cc1 | 8.88 µM | 7.62 µM | > 100 µM | 19.5 µM | 11.8 µM | 20.4 µM | 2.88 µM | 2.34 µM | 3.35 µM | 2.91 µM | 3.34 µM | 2.89 µM
N#CC1=C(N)Oc2cc3c(cc2C1c1cccs1)OCO3 (stereo unspecified) | – | > 70.5 µM | > 100 µM | > 100 µM | > 62.3 µM | 37.6 µM | – | 0.595 µM | 1.16 µM | 0.343 µM | 0.882 µM | 5.41 µM
CCC1=C(C)/C(=C/c2[nH]c(C)c(C(=O)CCCCC(=O)OC)c2C)N=C1c1ccc[nH]1 | 46.1 µM | 13.8 µM | 46.4 µM | 18 µM | 46.4 µM | > 41.3 µM | 10.4 µM | 3.45 µM | 4.4 µM | 12.1 µM | 3.8 µM | 4.6 µM
CCn1c(=O)c(-c2ccn[nH]2)cc2c(C)nc(N)nc21 | > 100 µM | 0.748 µM | 12 µM | > 100 µM | > 100 µM | 4.29 µM | 1.69 µM | 0.173 µM | 0.397 µM | 0.389 µM | 0.225 µM | 1.45 µM
O=C1c2ccccc2-c2c1c1ccccc1c(=O)n2Cc1ccco1 | > 100 µM | > 100 µM | > 100 µM | > 100 µM | > 100 µM | > 100 µM | – | – | – | – | – | –
Nc1ccccc1C#CC#Cc1ccccc1N | 31.3 µM | > 100 µM | 24.5 µM | > 100 µM | – | 49 µM | 4.6 µM | > 100 µM | 23.1 µM | – | 20.5 µM | 10.9 µM
CN1CCN(Cc2ccc(-c3cc4ncnc(Nc5ccc(OCc6cccc(F)c6)c(Cl)c5)c4s3)o2)CC1 | 10.4 µM | 9.06 µM | 9.01 µM | 8.17 µM | 7.81 µM | 8.91 µM | 4.68 µM | 4.12 µM | 4.13 µM | 3.86 µM | 4.41 µM | 4.56 µM
CC(C)(C)[Si](C)(C)OCC1CCC(n2cnc3c(NC(=O)c4ccccc4)ncnc32)O1 (stereo unspecified) | 29.2 µM | 60.6 µM | 37.1 µM | 52.6 µM | 45.1 µM | – | – | – | – | – | – | –
CCNC(=O)C[C@@H]1N=C(c2ccc(Cl)cc2)c2cc(OC)ccc2-n2c(C)nnc21 | > 100 µM | > 100 µM | > 100 µM | > 100 µM | > 100 µM | > 100 µM | 1.75 µM | 2.9 µM | 3.15 µM | 0.532 µM | > 28.1 µM | 2.76 µM
CNc1ccccc1C(=O)N/N=C/C=C/c1ccccc1 | – | > 86.9 µM | 62 µM | > 100 µM | > 100 µM | > 100 µM | – | 3.48 µM | 2.56 µM | 0.49 µM | 53.2 µM | 4.11 µM
C[Si](C)(C)C#CCO[Si](C)(C)C | > 100 µM | > 100 µM | > 92.6 µM | > 100 µM | > 100 µM | > 100 µM | – | – | – | – | – | –
O=C(Nc1ccc(-c2nc3cc4ccccc4cc3[nH]2)cc1)c1cccc(Br)c1 | 20.4 µM | 18.1 µM | 19.3 µM | 13.4 µM | 10.4 µM | 28.5 µM | 4.72 µM | 4.09 µM | 3.02 µM | 1.97 µM | 12.6 µM | 3.11 µM
O=C(Nc1ccc(Cl)c([N+](=O)[O-])c1)Nc1nc2ccccc2s1 | 8.15 µM | 10.6 µM | 12.1 µM | 13 µM | 15.5 µM | 44.7 µM | 2.73 µM | 2.48 µM | 3.43 µM | 3.02 µM | 16.4 µM | 3.5 µM
COc1cc2oc(=O)cc(C)c2cc1[N+](=O)[O-] | 46.8 µM | 77.2 µM | 71.6 µM | > 67.6 µM | > 100 µM | 35.9 µM | – | – | – | – | – | –
S=CN1CCCCC1 | > 100 µM | > 100 µM | > 100 µM | > 100 µM | > 100 µM | > 100 µM | – | – | – | – | – | –
CN(C)/[N+]([O-])=N/Oc1cc(Nc2cccc(C(=O)O)c2)c([N+](=O)[O-])cc1[N+](=O)[O-] | > 100 µM | – | > 100 µM | > 100 µM | > 100 µM | > 100 µM | > 100 µM | – | > 100 µM | 36.8 µM | 72.2 µM | > 100 µM
Cc1ccc(Nc2nc(NCCO)c3ccccc3n2)cc1C | 15.9 µM | 10.4 µM | 16.1 µM | 16.7 µM | 16.9 µM | 23.6 µM | 4 µM | 2.29 µM | 4.24 µM | 1.66 µM | 11.5 µM | 4.22 µM
